The record followed here is US10420737B2, “Hepatotoxicity-free pharmaceutical composition containing acetaminophen drugs” (NATIONAL DEFENSE EDUCATION AND RESEARCH FOUNDATION, priority 2013, dated 2019).

For data set [1], the system named is Male SD (Sprague-Dawley) rats. Nature of the data set: APAP-induced hepatotoxicity in rats: galactose single point (GSP) residual liver function test. It counts as in vivo, rat. The settings on record: excipient 1.67 mg/kg + APAP 1000 mg/kg, single oral dose. The method, then: After the study was completed, all rats were subjected to GSP test. Rats were i.v. injected with 0.4 g/ml BW galactose solution 0.5 g/kg within 30 seconds and one blood sample was collected at 5, 10, 15, 30, 45 and 60 minutes post injection from the tail vein. Colorimetric galactose dehydrogenase is used to quantify the concentration of galactose and the test concentration ranges from 50 to 1,000 μg/ml. The within-day variation of each concentration is calculated using standard deviation and coefficient of variation (CV) and the maximum allowable coefficient of variation is 10% CV, whereas day-to-day variation is examined by comparing the slope and intercept of calibration curves. The GSP is the blood galactose concentration obtained 60 seconds after stopping the 30-second injection.

For data set [2], the target named is Cytochrome P450 2E1 (CYP2E1) (Homo sapiens, UniProt P05181). The data set can be described thus: In-vitro screening of CYP2E1 inhibitors in human liver microsomes (chlorzoxazone 6-hydroxylation). The settings on record: human, microsomes, 30 min, pH 7.4. The text has this: (§1) This example is preparation of microsomes from rat and human liver for in vitro screening of CYP2E1 inhibitors. A total of 55 safe and edible excipients are included in the screening for cytochrome P450 2E1 (CYP2E1) inhibitors. […] After addition of the test sample, the amount of CYP2E1 metabolite standard 6-OH—CZX (6-Hydroxy-Chlorzoxazone) is used for calculation of the CYP 2E1 inhibition ratio of the test sample by using the amount of 6-OH—CZX of the control group as the baseline.
(§2) Transfer to and pre-incubate the reaction mixture in a water bath at 37° C. for 1 minute. […] Incubate the sample for 1 minute and add internal standard (5 ug/mL 4-hydroxy-tobutamide).

Data set [3] has as its system Male SD (Sprague-Dawley) rats. Nature of the data set: APAP-induced hepatotoxicity in rats: plasma AST and ALT activity. It counts as in vivo, rat. The method, then: After completion of the treatments, rats were sacrificed under ether anesthesia, and blood was collected from the tail artery of the rats and placed in a test tube containing EDTA. The plasma was centrifuged at 13,000 at 4° C. for 15 minutes and the isolated plasma was transferred to Eppendorf tubes in aliquots and stored at −80° C.
Liver damage is quantified by measuring plasma AST and ALT activity. AST and ALT are common indicators of hepatotoxicity and are measured by using the Synchron LXi 725 system (Beckman Instruments, U.S.).

Data set [4] has as its target Cytochrome P450 2E1 (CYP2E1) (Rattus norvegicus, UniProt P05182). The data set can be described thus: In-vitro screening of CYP2E1 inhibitors in rat liver microsomes (chlorzoxazone 6-hydroxylation). The settings on record: rat, microsomes, 30 min, pH 7.4.
From the text: as §1, §2

In data set [5] the test system is Male SD (Sprague-Dawley) rats. The data set can be described thus: APAP-induced hepatotoxicity in rats: histological liver tissue sections (Total HAI-score). The settings on record: single oral dose.
[6] abbreviates: excipient 1.67 mg/kg + APAP 1000 mg/kg, single oral dose.

“Also recorded” adds a separate entry of the source.

Sequence of Cytochrome P450 2E1 (CYP2E1) (Homo sapiens, UniProt P05181) (P05181 whole entry): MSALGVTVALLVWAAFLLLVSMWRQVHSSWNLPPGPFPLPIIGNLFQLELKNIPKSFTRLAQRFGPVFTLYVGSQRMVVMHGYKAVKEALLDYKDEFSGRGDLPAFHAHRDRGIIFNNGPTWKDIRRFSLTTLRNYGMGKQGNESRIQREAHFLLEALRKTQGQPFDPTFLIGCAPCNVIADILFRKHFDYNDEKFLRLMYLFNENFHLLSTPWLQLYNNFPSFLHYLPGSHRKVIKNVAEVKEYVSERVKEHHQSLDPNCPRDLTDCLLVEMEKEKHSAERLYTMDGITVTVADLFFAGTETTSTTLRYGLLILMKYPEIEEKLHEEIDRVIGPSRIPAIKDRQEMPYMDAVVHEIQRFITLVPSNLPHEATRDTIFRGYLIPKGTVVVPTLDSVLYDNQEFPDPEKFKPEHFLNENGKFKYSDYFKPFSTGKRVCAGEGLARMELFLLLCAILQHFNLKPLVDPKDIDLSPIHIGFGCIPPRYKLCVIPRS
Sequence of Cytochrome P450 2E1 (CYP2E1) (Rattus norvegicus, UniProt P05182) (P05182 whole entry): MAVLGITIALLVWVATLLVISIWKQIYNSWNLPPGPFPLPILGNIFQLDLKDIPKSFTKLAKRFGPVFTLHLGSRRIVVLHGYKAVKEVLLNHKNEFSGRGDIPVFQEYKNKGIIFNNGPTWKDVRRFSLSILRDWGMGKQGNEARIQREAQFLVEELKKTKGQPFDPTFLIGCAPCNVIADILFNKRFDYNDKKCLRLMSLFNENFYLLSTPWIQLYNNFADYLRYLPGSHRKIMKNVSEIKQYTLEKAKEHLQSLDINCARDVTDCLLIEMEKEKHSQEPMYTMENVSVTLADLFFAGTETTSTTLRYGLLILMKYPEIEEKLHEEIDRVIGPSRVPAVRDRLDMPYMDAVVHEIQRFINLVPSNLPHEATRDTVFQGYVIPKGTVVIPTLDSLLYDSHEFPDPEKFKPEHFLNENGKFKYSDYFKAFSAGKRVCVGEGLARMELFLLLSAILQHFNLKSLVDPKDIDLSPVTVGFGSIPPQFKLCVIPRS

Consider `OC[C@H]1O[C@H](O[C@]2(CCl)O[C@H](CCl)[C@@H](O)[C@@H]2O)[C@H](O)[C@@H](O)[C@H]1Cl` [Sucralose], for which the GSP in data set [1] was determined as 218 ± 31 mg/L. Besides, the “CYP 2E1 inhibition ratio” value in data set [2] (16.5 μM) is recorded as 37.1 ± 2.8%; in data set [2] (33 μM), 45.8 ± 4.0%; in data set [2] (66 μM), 55.8 ± 2.0%; in data set [4] (16.5 μM), 41.1 ± 2.7%; in data set [4] (33 μM), 46.8 ± 0.8%; in data set [4] (66 μM), 54.0 ± 4.2%. Also, the “improvement of APAP liver damage (AST, ALT, GSP and Total HAI-score, in words)” value in data set [3] (combined with APAP 1000 mg/kg, versus APAP hepatotoxicity group) is reported as “significant decrease”. For the same compound, in data set [3] (setting [6]), the ALT is on record as 83 ± 23 IU/L. The AST in data set [3] (setting [6]) worked out at 199 ± 24 IU/L. For the same compound, the “Total HAI-score” value in data set [5] (excipient 1.67 mg/kg + APAP 1000 mg/kg) stood at 0.6 ± 0.4. Besides, the “liver tissue sections, hepatocyte morphology (in words)” value in data set [5] (liver protection groups + APAP 1000 mg/kg, H&E stain 200×, FIG. 2) was “most similar to the liver tissue sections of normal rats; also recorded: hepatocytes are relatively intact with visible nucleus and less vacuolization”.
